The text below walks through data of patent US10294218B2 (VIROSTATICS SRL, priority 2012, dated 2019).

Bounds are passed on as bounds.

For the first series, the system named is laboratory strain of HIV-1. Briefly: Antiviral activity against HIV (AV), p24 in infected activated primary T cells. Type of series: cell-based. As to conditions: Human immunodeficiency virus 1, T-cell, read-out: AV50 (Inhibitory concentration 50% for antiviral activity). The method, then:
Activated primary T cells are infected with a laboratory strain of HIV-1, then cultured and exposed to different concentrations of the test compounds. HIV replication is analysed by measuring the viral protein p24 and expressed as percentage of untreated control. Inhibition of viral replication (AV) is then calculated (AV=100 minus the % p24 compared to control, AV of control=0%). Inhibitory concentration 50% for antiviral activity (AV50) is calculated.
(§1) In Tables 2, 3 and 4, ND means Not Determined.
Regarding `CCOc1ccccc1-c1cc(Nc2ccc(OC)c(N)c2)ncn1` [Example 62, N^1-[6-(2-Ethoxy-phenyl)-pyrimidin-4-yl]-4-methoxy-benzene-1,3-diamine], the IC50 was below 80 nM.

With `COc1ccc(-c2cc(Nc3ccc(OC)c(N)c3)ncn2)cc1` [Example 66, 4-Methoxy-N^1-[6-(4-methoxy-phenyl)-pyrimidin-4-yl]-benzene-1,3-diamine], the IC50 is above 10000 nM.

Turning to `COc1cccc(-c2cc(Nc3ccc(OC)c(N)c3)ncn2)c1` [Example 68, 4-Methoxy-N^1-[6-(3-methoxy-phenyl)-pyrimidin-4-yl]-benzene-1,3-diamine], the IC50 came to 1000 nM.

On to `COc1ccc(Nc2cc(-c3ccccc3O)ncn2)cc1N` [Example 70, 2-[6-(3-Amino-4-methoxy-phenylamino)-pyrimidin-4-yl]-phenol], for which the IC50 was above 10000 nM.

Consider `COc1ccc(Nc2cc(-c3ccccc3OCc3ccccc3)ncn2)cc1N` [Example 71, N^1-[6-(2-Benzyloxy-phenyl)-pyrimidin-4-yl]-4-methoxy-benzene-1,3-diamine], for which the IC50 is 2000 nM.

Regarding `CCOc1cc(F)ccc1-c1cc(Nc2ccc(OC)c(N)c2)ncn1` [Example 73, N^1-[6-(2-Ethoxy-4-fluoro-phenyl)-pyrimidin-4-yl]-4-methoxy-benzene-1,3-diamine], the IC50 came to 0.2 nM.

With `COc1ccc(Nc2cc(-c3ccccc3Oc3ccccc3)ncn2)cc1N` [Example 77, 4-Methoxy-N^1-[6-(2-phenoxy-phenyl)-pyrimidin-4-yl]-benzene-1,3-diamine], the IC50 was 10000 nM.

Take `COc1ccc(Nc2cc(-c3cccc(F)c3OC)ncn2)cc1N` [Example 81, N^1-[6-(3-Fluoro-2-methoxy-phenyl)-pyrimidin-4-yl]-4-methoxy-benzene-1,3-diamine]: the IC50 worked out at 60 nM.

Turning to `COc1ccc(Nc2cc(-c3cc(F)c(F)cc3OC)ncn2)cc1N` [Example 83, N^1-[6-(4,5-Difluoro-2-methoxy-phenyl)-pyrimidin-4-yl]-4-methoxy-benzene-1,3-diamine], the IC50 was found to be 7 nM.

`COc1ccc(Nc2cc(-c3ccc(F)cc3OC(C)C)ncn2)cc1N` [Example 86, N^1-[6-(4-Fluoro-2-isopropoxy-phenyl)-pyrimidin-4-yl]-4-methoxy-benzene-1,3-diamine]: the IC50 stood at 100 nM.

Regarding `COc1ccccc1-c1cc(Nc2cc(N)c(OC)c(F)c2)ncn1` [Example 88, 5-Fluoro-4-methoxy-N^1-[6-(2-methoxy-phenyl)-pyrimidin-4-yl]-benzene-1,3-diamine], the IC50 was above 400 nM.

As for `CCOc1cc(F)ccc1-c1cc(Nc2cc(N)c(OC)c(F)c2)ncn1` [Example 89, N^1-[6-(2-Ethoxy-4-fluoro-phenyl)-pyrimidin-4-yl]-5-fluoro-4-methoxy-benzene-1,3-diamine], the IC50 was above 400 nM.

For `COc1cc(F)ccc1-c1cc(Nc2cc(N)c(OC)c(F)c2)ncn1` [Example 90, 5-Fluoro-N^1-[6-(4-fluoro-2-methoxy-phenyl)-pyrimidin-4-yl]-4-methoxy-benzene-1,3-diamine], the IC50 is above 400 nM.

On to `COc1cc(F)c(Nc2cc(-c3ccccc3OC)ncn2)cc1N` [Example 92, 4-Fluoro-6-methoxy-N^3-[6-(2-methoxy-phenyl)-pyrimidin-4-yl]-benzene-1,3-diamine], for which the IC50 was 250 nM.

`CCOc1ccc(Nc2cc(-c3ccccc3OC)ncn2)cc1N` [Example 101, 4-Ethoxy-N^1-[6-(2-methoxy-phenyl)-pyrimidin-4-yl]-benzene-1,3-diamine]: the IC50 was 60 nM.

On to `CCOc1ccc(Nc2cc(-c3ccc(F)cc3OC)ncn2)cc1N` [Example 105, 4-Ethoxy-N^1-[6-(4-fluoro-2-methoxy-phenyl)-pyrimidin-4-yl]-benzene-1,3-diamine], for which the IC50 amounted to 16 nM.

Consider `COc1ccc(Nc2cc(-c3cc(F)ccc3OC)ncn2)cc1O` [Example 122, 5-[6-(5-Fluoro-2-methoxy-phenyl)-pyrimidin-4-ylamino]-2-methoxy-phenol], for which the IC50 amounted to 80 nM.

Regarding `COc1ccc(Nc2cc(-c3ccc(F)cc3OC)ncn2)cc1O` [Example 123, 5-[6-(4-Fluoro-2-methoxy-phenyl)-pyrimidin-4-ylamino]-2-methoxy-phenol], the IC50 was 50 nM.

For `CCOc1cc(F)ccc1-c1cc(Nc2ccc(OC)c(C(N)=O)c2)ncn1` [Example 130, 5-[6-(2-Ethoxy-4-fluoro-phenyl)-pyrimidin-4-ylamino]-2-methoxy-benzamide], the IC50 turned out to be 16 nM.

As to `CCOc1ccc(F)cc1-c1cc(Nc2ccc(OC)c(C(N)=O)c2)ncn1` [Example 131, 5-[6-(2-Ethoxy-5-fluoro-phenyl)-pyrimidin-4-ylamino]-2-methoxy-benzamide], the IC50 was below 80 nM.

On to `COc1ccccc1-c1cc(Nc2ccc(C(N)=O)c(Cl)c2)ncn1` [Example 132, 2-Chloro-4-[6-(2-methoxy-phenyl)-pyrimidin-4-ylamino]-benzamide], for which the IC50 was determined as 5000 nM.

In the case of `COC(=O)c1ccc(Nc2cc(-c3ccccc3OC)ncn2)cc1OC` [Example 133, 2-Methoxy-4-[6-(2-methoxy-phenyl)-pyrimidin-4-ylamino]-benzoic Acid Methyl Ester], the IC50 stood at 7000 nM.

Turning to `COc1ccccc1-c1cc(Nc2cc(F)c(OC)c(C(N)=O)c2)ncn1` [Example 137, 3-Fluoro-2-methoxy-5-[6-(2-methoxy-phenyl)-pyrimidin-4-ylamino]-benzamide], the IC50 was above 2000 nM.

With `COc1cc(F)ccc1-c1cc(Nc2cc(F)c(OC)c(C(N)=O)c2)ncn1` [Example 138, 3-Fluoro-5-[6-(4-fluoro-2-methoxy-phenyl)-pyrimidin-4-ylamino]-2-methoxy-benzamide], the IC50 was above 400 nM.

Consider `CCOc1cc(F)ccc1-c1cc(Nc2cc(F)c(OC)c(C(N)=O)c2)ncn1` [Example 139, 5-[6-(2-Ethoxy-4-fluoro-phenyl)-pyrimidin-4-ylamino]-3-fluoro-2-methoxy-benzamide], for which the IC50 was 400 nM.

Consider `COc1ccc(F)cc1-c1cc(Nc2cc(F)c(OC)c(C(N)=O)c2)ncn1` [Example 140, 3-Fluoro-5-[6-(5-fluoro-2-methoxy-phenyl)-pyrimidin-4-ylamino]-2-methoxy-benzamide], for which the IC50 is above 400 nM.

For the compound `CCOc1ccccc1-c1cc(Nc2cc(F)c(OC)c(C(N)=O)c2)ncn1` [Example 141, 5-[6-(2-Ethoxy-phenyl)-pyrimidin-4-ylamino]-3-fluoro-2-methoxy-benzamide], the IC50 is 80 nM.

With `CCOc1ccc(F)cc1-c1cc(Nc2cc(C(N)=O)c(OC)cc2F)ncn1` [Example 148, 5-[6-(2-Ethoxy-5-fluoro-phenyl)-pyrimidin-4-ylamino]-4-fluoro-2-methoxy-benzamide], the IC50 was below 80 nM.

The series is the same for the next values; noted with them: summary of AV, AP and cytotoxicity assays.
`CCOc1ccccc1-c1cc(Nc2ccc(OC)c(N)c2)ncn1` [Example 62, N^1-[6-(2-Ethoxy-phenyl)-pyrimidin-4-yl]-4-methoxy-benzene-1,3-diamine]: the “antiviral and antiproliferative activity and cytotoxicity profile (in words)” value is “good antiviral and antiproliferative activity and a good cytotoxicity profile”.

`CCOc1cc(F)ccc1-c1cc(Nc2ccc(OC)c(N)c2)ncn1` [Example 73, N^1-[6-(2-Ethoxy-4-fluoro-phenyl)-pyrimidin-4-yl]-4-methoxy-benzene-1,3-diamine]: the “antiviral and antiproliferative activity and cytotoxicity profile (in words)” value is “good antiviral and antiproliferative activity and a good cytotoxicity profile”.

With `COc1ccc(Nc2cc(-c3cc(F)c(F)cc3OC)ncn2)cc1N` [Example 83, N^1-[6-(4,5-Difluoro-2-methoxy-phenyl)-pyrimidin-4-yl]-4-methoxy-benzene-1,3-diamine], the “antiviral and antiproliferative activity and cytotoxicity profile (in words)” value is “good antiviral and antiproliferative activity and a good cytotoxicity profile”.

As for `COc1ccc(Nc2cc(-c3ccc(F)cc3OC)ncn2)cc1O` [Example 123, 5-[6-(4-Fluoro-2-methoxy-phenyl)-pyrimidin-4-ylamino]-2-methoxy-phenol], the “antiviral and antiproliferative activity and cytotoxicity profile (in words)” value was “good antiviral and antiproliferative activity and a good cytotoxicity profile”.

As to `CCOc1cc(F)ccc1-c1cc(Nc2ccc(OC)c(C(N)=O)c2)ncn1` [Example 130, 5-[6-(2-Ethoxy-4-fluoro-phenyl)-pyrimidin-4-ylamino]-2-methoxy-benzamide], the “antiviral and antiproliferative activity and cytotoxicity profile (in words)” value was “good antiviral and antiproliferative activity and a good cytotoxicity profile”.

As to `CCOc1ccc(F)cc1-c1cc(Nc2ccc(OC)c(C(N)=O)c2)ncn1` [Example 131, 5-[6-(2-Ethoxy-5-fluoro-phenyl)-pyrimidin-4-ylamino]-2-methoxy-benzamide], the “antiviral and antiproliferative activity and cytotoxicity profile (in words)” value was “good antiviral and antiproliferative activity and a good cytotoxicity profile”.

As to `CCOc1ccccc1-c1cc(Nc2cc(F)c(OC)c(C(N)=O)c2)ncn1` [Example 141, 5-[6-(2-Ethoxy-phenyl)-pyrimidin-4-ylamino]-3-fluoro-2-methoxy-benzamide], the “antiviral and antiproliferative activity and cytotoxicity profile (in words)” value is “good antiviral and antiproliferative activity and a good cytotoxicity profile”.

A further series relates to Primary T cells. Briefly: Antiproliferative activity (AP), mitotic index by flow cytometry. The following applies: T-cell, read-out: AP50 (Inhibitory concentration 50% for antiproliferative capacity). Format: cell-based. On the procedure:
Primary T cells are cultured and exposed to different concentrations of the test compounds. Cell proliferation is analysed by measuring mitotic index (ie the number of cell divisions a population of cells undergoes) through flow cytometry based techniques. Mitotic index is expressed as percentage of untreated control. Inhibition of cell proliferation (AP) is then calculated (AP=100 minus % mitotic index compared to control, AP of control=0%). Inhibitory concentration 50% for antiproliferative capacity (AP50) is calculated.
as §1
On the technique in general: In flow cytometry, cells or beads pass a laser one at a time.
For `COc1ccc(Nc2cc(-c3ccccc3OC)ncn2)cc1CNCc1ccccc1` [Example 1, N-(3-((Benzylamino)methyl)-4-methoxyphenyl)-6-(2-methoxyphenyl)pyrimidin-4-amine], the IC50 stood at 2500 nM.

The same series, now with this note: T-cell; primary T cells, mitotic index; read-out: AP50 (Inhibitory concentration 50% for antiproliferative capacity).
For the compound `COc1ccccc1-c1cc(Nc2ccc(N3CCN(C)CC3)c(Cn3cnc4ccccc43)c2)ncn1` [Example 2, N-(3-((1H-Benzo[d]imidazol-1-yl)methyl)-4-(4-methylpiperazin-1-yl)phenyl)-6-(2-methoxyphenyl)pyrimidin-4-amine], the IC50 is 400 nM.

Consider `COc1ccc(Nc2cc(-c3ccccc3OC)ncn2)cc1CNS(C)(=O)=O` [Example 4, N-(2-Methoxy-5-(6-(2-methoxyphenyl)pyrimidin-4-ylamino)benzyl)methanesulfonamide], for which the IC50 came to 1500 nM.

For the compound `COc1ccccc1-c1cc(Nc2ccc(Cl)c(C(=O)NN)c2)ncn1` [Example 7, 2-Chloro-5-(6-(2-methoxyphenyl)pyrimidin-4-ylamino)benzohydrazide], the IC50 is 4000 nM.

Take `COc1ccccc1-c1cc(Nc2ccc(OC)c([N+](=O)[O-])c2)ncn1` [Example 11, N-(4-Methoxy-3-nitrophenyl)-6-(2-methoxyphenyl)pyrimidin-4-amine]: the IC50 was above 1500 nM.

In the case of `COc1ccccc1-c1cc(Nc2ccc(O)c([N+](=O)[O-])c2)ncn1` [Example 12, 4-(6-(2-methoxyphenyl)pyrimidin-4-ylamino)-2-nitrophenol], the IC50 was above 1500 nM.

Regarding `CCOC(=O)c1cc(Nc2cc(-c3ccccc3OC)ncn2)ccc1Cl` [Example 14, Ethyl 2-chloro-5-(6-(2-methoxyphenyl)pyrimidin-4-ylamino)benzoate], the IC50 was above 500 nM.
